Measurements: PubChem BioAssay AID1259408 (Genetic Toxicology Data Bank (GENE-TOX), 2018)
The source made the active and inactive calls. How the calls were made is not given here.

Test system: GENE-TOX genotoxicity assays, various organisms and cells
Assay: GENE-TOX mutagenicity studies
Settings: for call: Assay Type: In vivo carcinogenicity studies
Excerpt: GENE-TOX provides genetic toxicology (mutagenicity) test data from expert peer review of open scientific literature for more than 3,000 chemicals from the United States Environmental Protection Agency (EPA). GENE-TOX was established to select assay systems for evaluation, review data in the scientific literature, and recommend proper testing protocols and evaluation procedures for these systems.
GENE-TOX covers the years 1991 - 1998. It is no longer updated.
This is an archive assay for GENE-TOX mutagenicity studies.

[1] = Species/Cell Type: Salmonella typhimurium (one or more of the five standard strains: TA98, TA100, TA1535, TA1537, and TA1538), Assay Type: Histidine reverse gene mutation, Ames assay, Assay Code: SALT, Evaluation Type: Evaluation A (Pre-1980)
[2] = Species/Cell Type: Drosophila melanogaster, Assay Type: Sex-linked recessive lethal gene mutation, Assay Code: SRLT, Evaluation Type: Evaluation A (Pre-1980)
[3] = Species/Cell Type: Schizosaccharomyces pombe, Assay Type: Reverse gene mutation, Assay Code: YEZ+, Evaluation Type: Evaluation A (Pre-1980)
[4] = Species/Cell Type: Salmonella typhimurium (one or more of the five standard strains: TA98, TA100, TA1535, TA1537, and TA1538), Assay Type: Histidine reverse gene mutation, Ames assay, Assay Code: SAL-, Evaluation Type: Evaluation A (Pre-1980)
[5] = Species/Cell Type: Salmonella typhimurium (one or more of the five standard strains: TA98, TA100, TA1535, TA1537, and TA1538), Assay Type: Histidine reverse gene mutation, Ames assay, Assay Code: SAL+, Evaluation Type: Evaluation A (Pre-1980)
[6] = Species/Cell Type: Drosophila melanogaster, Assay Type: Sex-linked recessive lethal gene mutation, Assay Code: SRL+, Evaluation Type: Evaluation A (Pre-1980)
[7] = Species/Cell Type: Human lymphocytes, Assay Type: Sister-chromatid exchange (SCE) in vitro, Assay Code: SCL+D, Dose Response: With dose response, Evaluation Type: Evaluation B (Post-1980)
[8] = Species/Cell Type: Human, Assay Type: Sister-chromatid exchange (SCE) in vitro, Assay Code: SC1+D, Dose Response: With dose response, Evaluation Type: Evaluation B (Post-1980)
[9] = Species/Cell Type: Nonhuman, Assay Type: Sister-chromatid exchange (SCE) in vitro, Assay Code: SC2+D, Dose Response: With dose response, Evaluation Type: Evaluation B (Post-1980)
[10] = Species/Cell Type: Vicia faba, Assay Type: Chromosome aberrations, Assay Code: VIC+D, Dose Response: With dose response, Evaluation Type: Evaluation A (Pre-1980)

Compound: COc1cc2c(c3oc(=O)c4c(c13)CCC4=O)[C@@H]1C(Cl)C(O)O[C@@H]1O2 (stereo partly drawn)
- mutagenic call [1]: no conclusion

Compound: C=CCn1c(Cl)c(CC)c(=O)n(CC)c1=O
- mutagenic call [2]: no conclusion

Compound: C/C(=N\O)c1ccc([N+](=O)[O-])s1
- mutagenic call [1]: no conclusion

Compound: NCCCN1CC1
- mutagenic call [3]: active; positive

Compound: CC1(C)S[C@@H]2[C@H](NC(=O)Cc3ccccc3)C(=O)N2[C@H]1C(=O)O
- mutagenic call [2]: no conclusion
- mutagenic call [4]: inactive; negative

Compound: ClCCNCCNc1c2ccccc2nc2c1ccc1ccccc12
- mutagenic call [5]: active; positive

Compound: O=c1ccc2ccccc2o1
- mutagenic call (Species/Cell Type: Allium cepa, Assay Type: Chromosome aberrations, Assay Code: ALC+D, Dose Response: With dose response, Evaluation Type: Evaluation A (Pre-1980)): active; positive

Compound: O=c1ccc(=O)[nH][nH]1
- mutagenic call (Species/Cell Type: Allium cepa, Assay Type: Chromosome aberrations, Assay Code: ALC+, Evaluation Type: Evaluation A (Pre-1980)): active; positive
- mutagenic call (Species/Cell Type: Arabidopsis species, Assay Type: Gene mutation, Assay Code: ARM-, Evaluation Type: Evaluation A (Pre-1980)): inactive; negative
- mutagenic call [6]: active; positive
- mutagenic call (Species/Cell Type: Hordeum vulgare (barley), Assay Type: Chromosome aberrations, Assay Code: HOC+, Evaluation Type: Evaluation A (Pre-1980)): active; positive
- mutagenic call [7]: active; positive
- mutagenic call [8]: active; positive
- mutagenic call (Species/Cell Type: Mammalian polychromatic erythrocytes, Assay Type: Micronucleus test, chromosome aberrations, Assay Code: MNTT, Evaluation Type: Evaluation A (Pre-1980)): no conclusion
- mutagenic call (Species/Cell Type: Neurospora crassa, Assay Type: Aneuploidy, chromosome aberrations, Assay Code: NEN-, Evaluation Type: Evaluation A (Pre-1980)): inactive; negative
- call (Species/Cell Type: Nonhuman, Assay Code: CCG-L, Evaluation Type: Evaluation A (Pre-1980)): inactive; negative
- mutagenic call [9]: active; positive
- mutagenic call (Species/Cell Type: Nonhuman, Assay Type: Sister-chromatid exchange (SCE) in vitro, Assay Code: SC2-, Evaluation Type: Evaluation A (Pre-1980)): inactive; negative
- mutagenic call [4]: inactive; negative
- mutagenic call [10]: active; positive

Compound: COc1ccc(N2CCN(c3ccc([N+](=O)[O-])c4no[n+]([O-])c34)CC2)cc1
- mutagenic call [5]: active; positive

Compound: CN(C)P(=O)(N(C)C)N1CC1
- mutagenic call [6]: active; positive
- mutagenic call [7]: active; positive
- mutagenic call [8]: active; positive
- mutagenic call (Species/Cell Type: Nonhuman, Assay Type: Chromosome aberrations in vitro, Assay Code: CY&+, Evaluation Type: Evaluation A (Pre-1980)): active; positive

Compound: Nc1ncnc2c1ncn2[C@@H]1O[C@H](CO)[C@@H](O)[C@@H]1O
- mutagenic call [10]: active; positive

Compound: O=NN1CCC(Br)C(Br)C1 (stereo not drawn)
- mutagenic call [6]: active; positive
- mutagenic call [5]: active; positive

Compound: O=c1cc(-c2ccccc2)oc2c1ccc1ccccc12
- mutagenic call [7]: active; positive
- mutagenic call [8]: active; positive
- mutagenic call (Species/Cell Type: Human, Assay Type: Sister-chromatid exchange (SCE) in vitro, Assay Code: SC1T, Evaluation Type: Evaluation A (Pre-1980)): no conclusion
- mutagenic call (Species/Cell Type: Mammalian polychromatic erythrocytes, Assay Type: Micronucleus test, chromosome aberrations, Assay Code: MNTT, Evaluation Type: Evaluation B (Post-1980)): no conclusion
- mutagenic call (Species/Cell Type: Syrian hamster embryo (SA7/SHE) cells, Assay Type: Cell transformation, viral enhanced, Assay Code: CT7-, Evaluation Type: Evaluation A (Pre-1980)): inactive; negative

Compound: OCCS
- mutagenic call [9]: active; positive

Compound: CCc1cccc(O)c1
- mutagenic call (Species/Cell Type: Human lymphocytes, Assay Type: Sister-chromatid exchange (SCE) in vitro, Assay Code: SCLT, Evaluation Type: Evaluation B (Post-1980)): no conclusion
- mutagenic call (Species/Cell Type: Human, Assay Type: Sister-chromatid exchange (SCE) in vitro, Assay Code: SC1T, Evaluation Type: Evaluation B (Post-1980)): no conclusion

Compound: Oc1ccc2cc3ccc4cccc5ccc(c2c1)c3c45
- mutagenic call (Species/Cell Type: Chinese hamster lung (V79) cells, Assay Type: Forward gene mutation at the HPRT or ouabain locus, Assay Code: V79+/-*, Activation: With metabolic activation, Evaluation Type: Evaluation A (Pre-1980)): inactive; positive without activation, negative with activation
- call (Species/Cell Type: Nonhuman, Assay Code: CCGT, Evaluation Type: Evaluation A (Pre-1980)): no conclusion
- mutagenic call (Species/Cell Type: Salmonella typhimurium (one or more of the five standard strains: TA98, TA100, TA1535, TA1537, and TA1538), Assay Type: Histidine reverse gene mutation, Ames assay, Assay Code: SAL+*, Activation: With metabolic activation, Evaluation Type: Evaluation A (Pre-1980)): active; positive

Compound: CCN(CC)c1ccc2nc3ccc(N=Nc4ccc(N(C)C)cc4)cc3[n+](-c3ccccc3)c2c1
- mutagenic call (Species/Cell Type: Bacillus subtilis (H17 vs M45T), Assay Type: Rec-assay, spot test, DNA effects (bacterial DNA repair), Assay Code: REXT, Evaluation Type: Evaluation A (Pre-1980)): no conclusion

Compound: Cc1cc2nc3ccc(N(C)C)cc3nc2cc1NC(=O)CN(C)N=O
- mutagenic call [1]: no conclusion

Compound: CC(C)=CC1C(C(=O)O)C1(C)C (stereo not drawn)
- mutagenic call (Species/Cell Type: Human diploid fibroblasts, Assay Type: Unscheduled DNA synthesis (UDS) in vitro, DNA effects, Assay Code: UDH-, Evaluation Type: Evaluation A (Pre-1980)): inactive; negative
- mutagenic call (Species/Cell Type: Saccharomyces cerevisiae, Assay Type: Mitotic recombination or gene conversion, Assay Code: YEH-, Evaluation Type: Evaluation A (Pre-1980)): inactive; negative

Compound: CC1(C)CN1
- mutagenic call [3]: active; positive

Compound: COc1ccc(N)c2c1C(=O)c1ccccc1C2=O
- mutagenic call [5]: active; positive

Compound: CCN(CC)Cc1cc(Br)ccc1OCC(=O)N/N=C/c1ccccc1O
- mutagenic call (Species/Cell Type: Saccharomyces cerevisiae, Assay Type: Reverse gene mutation, Assay Code: YERT, Evaluation Type: Evaluation A (Pre-1980)): no conclusion

Compound: C/C=C(/C)C(=O)O[C@@H]1CCN2CC=C(COC(=O)[C@@](O)([C@H](C)O)C(C)(C)O)[C@H]12
- mutagenic call [6]: active; positive
